Reference: ChEMBL document CHEMBL3639308, “Substituted naphthyridines and their use as medicaments” (2015)

Molecular target: Tyrosine-protein kinase SYK (Homo sapiens, UniProt P43405)

IC50: 1.9 nM
SMILES: COc1cc(-c2cc3ncccc3c(O[C@H](C)[C@H]3CNC(=O)C3)n2)ccc1OC(F)(F)F
